Reference: ChEMBL document CHEMBL3352452, “Phosphoinositide-3-kinase inhibitors: evaluation of substituted alcohols as replacements for the piperazine sulfonamide portion of AMG 511” (Bioorg Med Chem Lett, 2014)
Activity calls are given as the source filed them. The calls are words filed in the database; no cut-off is given here.

Tests used:
[1] = Intrinsic clearance in rat liver microsomes at 1 uM after 30 mins; type: ADME; settings: read-out: CLH
[2] = Intrinsic clearance in human liver microsomes at 1 uM after 30 mins; type: ADME; settings: read-out: CLH
[3] = molecular target: Serine/threonine-protein kinase mTOR (Homo sapiens, UniProt P42345); assay: Inhibition of recombinant N-terminally GST-tagged mTOR (1360 to 2549 aa) (unknown origin) assessed as inhibition of 27BP1 phosphorylation after 90 mins by TR-FRET assay
[4] = molecular target: PI3-kinase p110-alpha/p85-alpha (Homo sapiens, UniProt P42336); assay: Inhibition of human N-terminal poly-His tagged p110 alpha/ p85alpha expressed in Sf9 Baculovirus system after 20 mins by AlphaScreen assay
[5] = Inhibition of PI3K-mediated Akt S473 phosphorylation in human U87MG cells after 2 hrs by cell-based assay; design: species or system U-87MG ATCC; settings: U-87 MG
[6] = Clearance in Sprague-Dawley rat at 1 mg/kg, iv and 2 mg/kg, po; type: ADME, organism-based; settings: in vivo
[7] = Terminal half life in Sprague-Dawley rat at 1 mg/kg, iv and 2 mg/kg, po; type: ADME, organism-based; settings: in vivo, read-out: beta t1/2 (converted)
[8] = Fraction unbound in Sprague-Dawley rat plasma at 1 mg/kg, iv and 2 mg/kg, po; type: ADME, organism-based
[9] = Volume of distribution at steady state in Sprague-Dawley rat at 1 mg/kg, iv and 2 mg/kg, po; type: ADME, organism-based; settings: in vivo, read-out: Vdss
[10] = system: P-gp; assay: Efflux ratio of permeability across pig LLC-PK1 cells stably over-expressing rat P-gp at 5 uM; type: ADME, cell-based, Sus scrofa
[11] = Oral bioavailability in Sprague-Dawley rat at 2 mg/kg; type: ADME, organism-based; settings: in vivo
[12] = system: Mus musculus; assay: Inhibition of HGF-induced PI3K-mediated Akt phosphorylation at Ser473 in female CD1 nude mouse liver at 10 to 30 mg/kg, po administered 6 hrs prior HGF treatment measured after 5 mins by electrochemical luminescence immunoassay; type: functional, organism-based
[13] = system: Mus musculus; assay: Inhibition of HGF-induced PI3K-mediated Akt phosphorylation at Ser473 in female CD1 nude mouse liver compound administered orally 6 hrs prior HGF treatment measured after 5 mins by electrochemical luminescence immunoassay; type: functional, organism-based

PI3-kinase p110-alpha/p85-alpha, sequence (P27986 whole entry): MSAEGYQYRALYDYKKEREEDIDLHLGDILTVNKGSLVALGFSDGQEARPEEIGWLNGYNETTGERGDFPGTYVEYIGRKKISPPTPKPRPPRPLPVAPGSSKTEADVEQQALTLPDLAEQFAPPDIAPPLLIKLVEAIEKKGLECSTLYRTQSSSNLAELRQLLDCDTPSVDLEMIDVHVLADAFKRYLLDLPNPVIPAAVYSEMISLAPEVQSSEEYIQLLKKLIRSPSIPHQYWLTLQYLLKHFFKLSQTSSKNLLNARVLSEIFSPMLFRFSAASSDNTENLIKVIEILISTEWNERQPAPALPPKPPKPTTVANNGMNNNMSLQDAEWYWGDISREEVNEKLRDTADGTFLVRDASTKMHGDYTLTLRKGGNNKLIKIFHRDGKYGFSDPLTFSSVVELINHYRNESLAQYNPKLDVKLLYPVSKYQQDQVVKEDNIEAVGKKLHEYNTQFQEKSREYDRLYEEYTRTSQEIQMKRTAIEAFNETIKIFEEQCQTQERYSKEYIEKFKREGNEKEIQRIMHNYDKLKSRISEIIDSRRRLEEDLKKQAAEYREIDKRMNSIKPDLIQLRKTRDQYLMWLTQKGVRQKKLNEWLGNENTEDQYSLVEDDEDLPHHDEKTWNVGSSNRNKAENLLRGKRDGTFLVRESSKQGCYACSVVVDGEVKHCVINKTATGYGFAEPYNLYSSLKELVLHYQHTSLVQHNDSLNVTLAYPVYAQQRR
PI3-kinase p110-alpha/p85-alpha, sequence (P42336 whole entry): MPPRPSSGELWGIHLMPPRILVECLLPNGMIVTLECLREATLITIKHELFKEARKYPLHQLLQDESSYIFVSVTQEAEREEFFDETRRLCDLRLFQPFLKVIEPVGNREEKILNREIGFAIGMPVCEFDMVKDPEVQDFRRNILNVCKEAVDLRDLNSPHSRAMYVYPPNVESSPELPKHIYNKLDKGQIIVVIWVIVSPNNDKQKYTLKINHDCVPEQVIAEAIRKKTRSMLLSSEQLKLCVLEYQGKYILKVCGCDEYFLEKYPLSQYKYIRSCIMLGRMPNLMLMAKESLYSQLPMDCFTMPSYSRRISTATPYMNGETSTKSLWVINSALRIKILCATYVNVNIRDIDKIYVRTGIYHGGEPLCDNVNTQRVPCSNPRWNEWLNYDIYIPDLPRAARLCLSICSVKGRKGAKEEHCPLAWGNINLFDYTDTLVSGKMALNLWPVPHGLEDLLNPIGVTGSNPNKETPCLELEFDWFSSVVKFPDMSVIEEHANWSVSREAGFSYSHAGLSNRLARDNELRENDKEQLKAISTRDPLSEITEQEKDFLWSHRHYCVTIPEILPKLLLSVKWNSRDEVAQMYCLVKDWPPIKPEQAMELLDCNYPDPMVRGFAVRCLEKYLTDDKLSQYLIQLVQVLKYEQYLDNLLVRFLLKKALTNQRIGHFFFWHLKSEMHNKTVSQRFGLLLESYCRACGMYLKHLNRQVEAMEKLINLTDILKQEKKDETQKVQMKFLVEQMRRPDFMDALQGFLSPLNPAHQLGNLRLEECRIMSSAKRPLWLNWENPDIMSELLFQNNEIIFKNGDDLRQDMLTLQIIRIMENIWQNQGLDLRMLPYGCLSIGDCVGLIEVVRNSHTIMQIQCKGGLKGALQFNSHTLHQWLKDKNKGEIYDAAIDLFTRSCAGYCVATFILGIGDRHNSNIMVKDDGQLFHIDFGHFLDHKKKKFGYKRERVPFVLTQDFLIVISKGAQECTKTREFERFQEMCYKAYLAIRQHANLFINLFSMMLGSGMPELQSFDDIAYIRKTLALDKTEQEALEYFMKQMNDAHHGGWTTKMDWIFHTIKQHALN

| SMILES | microsomal CLint at 1 µM [1] [µL/min/mg] | microsomal CLint at 1 µM [2] [µL/min/mg] | IC50 [3] [nM] | Ki [4] [nM] | IC50 [5] [nM] | also measured |
| --- | --- | --- | --- | --- | --- | --- |
| COc1ncc(Nc2ncc(C3(O)CC3)cc2-c2nc(C)nc(N)n2)cc1F | 79 | 39 | 3700 | 16 | 18 | – |
| COc1cncc(Nc2ncc(C(C)(C)O)cc2-c2nc(C)nc(N)n2)c1 | 19 | 17 | 2100 | 89 | – | – |
| COc1ncc(Nc2ncc(C(C)(C)O)cc2-c2nc(C)nc(N)n2)cc1C(F)(F)F | – | – | > 25000 | – | – | – |
| CCc1cc(Nc2ncc(C(C)(C)O)cc2-c2nc(C)nc(N)n2)cnc1OC | – | – | 15800 | 469 | 470 | – |
| COc1ncc(Nc2ncc([C@@H](C)O)cc2-c2nc(C)nc(N)n2)cc1F | 45 | 22 | > 25000 | 40 | 20 | – |
| COc1ncc(Nc2ncc([C@H](C)O)cc2-c2nc(C)nc(N)n2)cc1F | < 14 | < 14 | > 25000 | 48 | 26 | – |
| COc1ccc(Nc2ncc(C(C)(C)O)cc2-c2nc(C)nc(N)n2)cn1 | 19 | < 14 | 790 | 89 | 48 | – |
| COc1ncc(Nc2ncc(C(C)(C)CO)cc2-c2nc(C)nc(N)n2)cc1F | 34 | 34 | > 17000 | 40 | – | – |
| Cc1nc(N)nc(-c2cc(C(C)(C)O)cnc2Nc2cncc(F)c2)n1 | 15 | < 14 | 2500 | 87 | – | – |
| Cc1nc(N)nc(-c2cc(C(C)(C)O)cnc2Nc2cncc(S(=O)(=O)c3ccccc3)c2)n1 | – | – | 6700 | 224 | – | – |
| COc1ncc(Nc2ncc([C@@H](C)N3CCN(S(C)(=O)=O)CC3)cc2-c2nc(C)nc(N)n2)cc1F | 20 | – | – | – | – | clearance [6]: 7.5 mL/min/kg; half-life [7]: 3.3 h; fraction unbound [8]: 0.08 |
| COc1ncc(Nc2ncc(C(C)(C)O)cc2-c2nc(C)nc(N)n2)cc1C | 22 | < 14 | 7800 | 118 | 49 | – |
| COc1ncc(Nc2ncc([C@@H](C)CO)cc2-c2nc(C)nc(N)n2)cc1F | 37 | < 14 | > 15000 | 40 | – | – |
| COc1ncc(Nc2ncccc2-c2nc(C)nc(N)n2)cc1F | 36 | 99 | > 22000 | 48 | – | – |
| COc1ncc(Nc2ncc(CO)cc2-c2nc(C)nc(N)n2)cc1F | 51 | – | > 15000 | 56 | 44 | – |
| Cc1nc(N)nc(-c2cc(C(C)(C)O)cnc2Nc2cncc(S(C)(=O)=O)c2)n1 | < 14 | < 14 | > 16000 | – | 1160 | – |
| COc1ncc(Nc2ncc(C(C)(C)O)cc2-c2nc(C)nc(N)n2)cc1C(C)C | – | – | > 25000 | 153 | 414 | – |
| COc1cc(Nc2ncc(C(C)(C)O)cc2-c2nc(C)nc(N)n2)cnc1OC | < 14 | < 14 | 10600 | 30 | 10 | clearance [6]: 21.7 mL/min/kg; half-life [7]: 4.8 h; Vd [9]: 4.2 L/kg; efflux ratio at 5 µM [10]: 25 |
| COc1ncc(Nc2ncc(C(C)(C)O)cc2-c2nc(C)nc(N)n2)cc1F | 23 | < 14 | 7800 | 23 | – | clearance [6]: 18.3 mL/min/kg; half-life [7]: 3.1 h; fraction unbound [8]: 0.06; bioavailability [11]: 37%; Vd [9]: 1.7 L/kg; inhibition [12]: Active; inhibition [13]: Dose-dependent effect |
| COc1ncc(Nc2ncc(C(O)C(F)(F)F)cc2-c2nc(C)nc(N)n2)cc1F (racemic) | 34 | 18 | 2200 | 30 | – | – |
| COc1ncc(Nc2ncc([C@H](C)CO)cc2-c2nc(C)nc(N)n2)cc1F | 36 | 14 | 11100 | 26 | – | – |
